Source: ChEMBL document CHEMBL1201862, “PubChem BioAssay data set” (2004)
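Five compound concentrations were applied to cells in 96-well plates for 48 hours; endpoints were derived by simple linear interpolation of the resulting dose-response curve. GI50 is the concentration that inhibits growth by half.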 The source made the active and inactive calls. Cut-off read from the data, not from the text of the source: active = GI50 up to about 1.1 µM and inactive = higher.

Key:
Assay in all cases: growth of human tumour cells (NCI), 48 h
SK-MEL-28 = system: SK-MEL-28
HOP-18 = system: HOP-18
HOP-92 = system: HOP-92
DLD-1 = system: DLD-1
DMS-114 = system: DMS-114
786-0 = system: 786-0
NCI-H460 = system: NCI-H460
ACHN = system: ACHN
IGROV-1 = system: IGROV-1
SF-268 = system: SF-268
HT-29 = system: HT-29
NCI-H522 = system: NCI-H522
HL-60 = system: HL-60
TK-10 = system: TK-10
COLO 205 = system: COLO 205
KM-20L2 = system: KM-20L2
XF498 = system: XF498
RPMI-8226 = system: RPMI-8226
KM12 = system: KM12
U-251 = system: U-251
OVCAR-5 = system: OVCAR-5
OVCAR-8 = system: OVCAR-8
LOX IMVI = system: LOX IMVI
UO-31 = system: UO-31
SW-620 = system: SW-620
DMS-273 = system: DMS-273
A549 = system: A549
SK-MEL-2 = system: SK-MEL-2
RXF 393 = system: RXF 393
Malme-3M = system: Malme-3M
SNB-78 = system: SNB-78
LXFL 529 = system: LXFL 529
SF-295 = system: SF-295
SNB-19 = system: SNB-19
SF-539 = system: SF-539
K562 = system: K562
CCRF-CEM = system: CCRF-CEM
SNB-75 = system: SNB-75
OVCAR-3 = system: OVCAR-3
NCI-H23 = system: NCI-H23
MOLT-4 = system: MOLT-4
A498 = system: A498
EKVX = system: EKVX
SK-OV-3 = system: SK-OV-3
UACC-257 = system: UACC-257
HOP-62 = system: HOP-62
M19-MEL = system: M19-MEL
HCC 2998 = system: HCC 2998
RXF 631 = system: RXF 631
HCT-116 = system: HCT-116
NCI-H226 = system: NCI-H226
SN12C = system: SN12C
OVCAR-4 = system: OVCAR-4
CAKI-1 = system: CAKI-1
SK-MEL-5 = system: SK-MEL-5
UACC-62 = system: UACC-62
M14 = system: M14
HCT-15 = system: HCT-15

Structure (SMILES): O=[N+]([O-])c1cccc(C2=NN(c3ccccc3)C3c4ccccc4OCC23)c1 (stereo not drawn)
- GI50 (SK-MEL-28): > 100 µM (inactive)
- GI50 (HOP-18): > 100 µM (inactive)
- GI50 (HOP-92): 52.8 µM (inactive)
- GI50 (DLD-1): > 100 µM (inactive)
- GI50 (DMS-114): > 100 µM (inactive)
- GI50 (786-0): > 100 µM (inactive)
- GI50 (NCI-H460): > 100 µM (inactive)
- GI50 (ACHN): > 100 µM (inactive)
- GI50 (IGROV-1): > 100 µM (inactive)
- GI50 (SF-268): > 100 µM (inactive)
- GI50 (HT-29): > 100 µM (inactive)
- GI50 (NCI-H522): 62.1 µM (inactive)
- GI50 (HL-60): 66.1 µM (inactive)
- GI50 (TK-10): > 100 µM (inactive)
- GI50 (COLO 205): > 100 µM (inactive)
- GI50 (KM-20L2): > 100 µM (inactive)
- GI50 (XF498): > 100 µM (inactive)
- GI50 (RPMI-8226): > 100 µM (inactive)
- GI50 (KM12): > 100 µM (inactive)
- GI50 (U-251): > 100 µM (inactive)
- GI50 (OVCAR-5): > 100 µM (inactive)
- GI50 (OVCAR-8): > 100 µM (inactive)
- GI50 (LOX IMVI): > 100 µM (inactive)
- GI50 (UO-31): 6.71 µM (inactive)
- GI50 (SW-620): > 100 µM (inactive)
- GI50 (DMS-273): > 100 µM (inactive)
- GI50 (A549): > 100 µM (inactive)
- GI50 (SK-MEL-2): > 100 µM (inactive)
- GI50 (RXF 393): > 100 µM (inactive)
- GI50 (Malme-3M): > 100 µM (inactive)
- GI50 (SNB-78): > 100 µM (inactive)
- GI50 (LXFL 529): > 100 µM (inactive)
- GI50 (SF-295): > 100 µM (inactive)
- GI50 (SNB-19): > 100 µM (inactive)
- GI50 (SF-539): > 100 µM (inactive)
- GI50 (K562): 75.3 µM (inactive)
- GI50 (CCRF-CEM): 91 µM (inactive)
- GI50 (SNB-75): > 100 µM (inactive)
- GI50 (OVCAR-3): > 100 µM (inactive)
- GI50 (NCI-H23): > 100 µM (inactive)
- GI50 (MOLT-4): > 100 µM (inactive)
- GI50 (A498): > 100 µM (inactive)
- GI50 (EKVX): > 100 µM (inactive)
- GI50 (SK-OV-3): > 100 µM (inactive)
- GI50 (UACC-257): > 100 µM (inactive)
- GI50 (HOP-62): > 100 µM (inactive)
- GI50 (M19-MEL): > 100 µM (inactive)
- GI50 (HCC 2998): > 100 µM (inactive)
- GI50 (RXF 631): > 100 µM (inactive)
- GI50 (HCT-116): 27.2 µM (inactive)

Structure (SMILES): COC(=O)C1(C)C=C(Nc2ccccc2)C(=O)N1c1ccccc1 (stereo not drawn)
- GI50 (SK-MEL-28): > 100 µM (inactive)
- GI50 (HOP-18): > 100 µM (inactive)
- GI50 (HOP-92): 54.1 µM (inactive)
- GI50 (DLD-1): > 100 µM (inactive)
- GI50 (DMS-114): > 100 µM (inactive)
- GI50 (786-0): > 100 µM (inactive)
- GI50 (NCI-H460): > 100 µM (inactive)
- GI50 (ACHN): > 100 µM (inactive)
- GI50 (IGROV-1): > 100 µM (inactive)
- GI50 (SF-268): > 100 µM (inactive)
- GI50 (HT-29): > 100 µM (inactive)
- GI50 (NCI-H522): > 100 µM (inactive)
- GI50 (HL-60): > 100 µM (inactive)
- GI50 (TK-10): > 100 µM (inactive)
- GI50 (XF498): > 100 µM (inactive)
- GI50 (RPMI-8226): > 100 µM (inactive)
- GI50 (KM12): > 100 µM (inactive)
- GI50 (NCI-H226): > 100 µM (inactive)
- GI50 (U-251): > 100 µM (inactive)
- GI50 (SN12C): > 100 µM (inactive)
- GI50 (OVCAR-5): > 100 µM (inactive)
- GI50 (OVCAR-4): > 100 µM (inactive)
- GI50 (OVCAR-8): > 100 µM (inactive)
- GI50 (CAKI-1): > 100 µM (inactive)
- GI50 (LOX IMVI): > 100 µM (inactive)
- GI50 (UO-31): 58.3 µM (inactive)
- GI50 (SW-620): > 100 µM (inactive)
- GI50 (A549): > 100 µM (inactive)
- GI50 (SK-MEL-2): > 100 µM (inactive)
- GI50 (RXF 393): > 100 µM (inactive)
- GI50 (Malme-3M): > 100 µM (inactive)
- GI50 (SNB-78): > 100 µM (inactive)
- GI50 (SK-MEL-5): > 100 µM (inactive)
- GI50 (LXFL 529): > 100 µM (inactive)
- GI50 (SF-295): > 100 µM (inactive)
- GI50 (SNB-19): > 100 µM (inactive)
- GI50 (SF-539): > 100 µM (inactive)
- GI50 (UACC-62): 99.5 µM (inactive)
- GI50 (K562): > 100 µM (inactive)
- GI50 (CCRF-CEM): > 100 µM (inactive)
- GI50 (OVCAR-3): > 100 µM (inactive)
- GI50 (NCI-H23): > 100 µM (inactive)
- GI50 (MOLT-4): > 100 µM (inactive)
- GI50 (M14): > 100 µM (inactive)
- GI50 (EKVX): > 100 µM (inactive)
- GI50 (SK-OV-3): > 100 µM (inactive)
- GI50 (UACC-257): > 100 µM (inactive)
- GI50 (HOP-62): > 100 µM (inactive)
- GI50 (M19-MEL): > 100 µM (inactive)
- GI50 (HCC 2998): > 100 µM (inactive)
- GI50 (RXF 631): 35.5 µM (inactive)
- GI50 (HCT-116): > 100 µM (inactive)

Structure (SMILES): CC(=O)N1CCc2[nH]c3ccccc3c2CC1
- GI50 (SK-MEL-28): > 100 µM (inactive)
- GI50 (HOP-18): 86.9 µM (inactive)
- GI50 (HOP-92): 31.5 µM (inactive)
- GI50 (DLD-1): > 100 µM (inactive)
- GI50 (DMS-114): > 100 µM (inactive)
- GI50 (786-0): > 100 µM (inactive)
- GI50 (NCI-H460): > 100 µM (inactive)
- GI50 (ACHN): > 100 µM (inactive)
- GI50 (IGROV-1): > 100 µM (inactive)
- GI50 (HT-29): > 100 µM (inactive)
- GI50 (HL-60): > 100 µM (inactive)
- GI50 (TK-10): > 100 µM (inactive)
- GI50 (COLO 205): > 100 µM (inactive)
- GI50 (KM-20L2): > 100 µM (inactive)
- GI50 (XF498): > 100 µM (inactive)
- GI50 (RPMI-8226): > 100 µM (inactive)
- GI50 (KM12): > 100 µM (inactive)
- GI50 (U-251): > 100 µM (inactive)
- GI50 (OVCAR-5): > 100 µM (inactive)
- GI50 (OVCAR-4): > 100 µM (inactive)
- GI50 (OVCAR-8): > 100 µM (inactive)
- GI50 (CAKI-1): > 100 µM (inactive)
- GI50 (LOX IMVI): > 100 µM (inactive)
- GI50 (HCT-15): > 100 µM
- GI50 (SW-620): > 100 µM (inactive)
- GI50 (DMS-273): > 100 µM (inactive)
- GI50 (A549): > 100 µM (inactive)
- GI50 (SK-MEL-2): > 100 µM (inactive)
- GI50 (Malme-3M): > 100 µM (inactive)
- GI50 (SNB-78): > 100 µM (inactive)
- GI50 (SK-MEL-5): > 100 µM (inactive)
- GI50 (LXFL 529): > 100 µM (inactive)
- GI50 (SF-295): > 100 µM (inactive)
- GI50 (SF-539): > 100 µM (inactive)
- GI50 (UACC-62): 86.1 µM (inactive)
- GI50 (K562): > 100 µM (inactive)
- GI50 (CCRF-CEM): > 100 µM (inactive)
- GI50 (SNB-75): 19.9 µM (inactive)
- GI50 (OVCAR-3): > 100 µM (inactive)
- GI50 (NCI-H23): > 100 µM (inactive)
- GI50 (MOLT-4): > 100 µM (inactive)
- GI50 (A498): > 100 µM (inactive)
- GI50 (M14): > 100 µM (inactive)
- GI50 (EKVX): > 100 µM (inactive)
- GI50 (SK-OV-3): > 100 µM (inactive)
- GI50 (UACC-257): > 100 µM (inactive)
- GI50 (HOP-62): > 100 µM (inactive)
- GI50 (M19-MEL): > 100 µM (inactive)
- GI50 (HCC 2998): > 100 µM (inactive)
- GI50 (RXF 631): > 100 µM (inactive)
- GI50 (HCT-116): > 100 µM (inactive)
